The values below come from US20230295200A1 (REGENTS OF THE UNIVERSITY OF MICHIGAN, priority 2022, published 2023).

In one test the target is T1, STAT5A (Homo sapiens, UniProt P42229).
T1 sequence (P42229 1-794): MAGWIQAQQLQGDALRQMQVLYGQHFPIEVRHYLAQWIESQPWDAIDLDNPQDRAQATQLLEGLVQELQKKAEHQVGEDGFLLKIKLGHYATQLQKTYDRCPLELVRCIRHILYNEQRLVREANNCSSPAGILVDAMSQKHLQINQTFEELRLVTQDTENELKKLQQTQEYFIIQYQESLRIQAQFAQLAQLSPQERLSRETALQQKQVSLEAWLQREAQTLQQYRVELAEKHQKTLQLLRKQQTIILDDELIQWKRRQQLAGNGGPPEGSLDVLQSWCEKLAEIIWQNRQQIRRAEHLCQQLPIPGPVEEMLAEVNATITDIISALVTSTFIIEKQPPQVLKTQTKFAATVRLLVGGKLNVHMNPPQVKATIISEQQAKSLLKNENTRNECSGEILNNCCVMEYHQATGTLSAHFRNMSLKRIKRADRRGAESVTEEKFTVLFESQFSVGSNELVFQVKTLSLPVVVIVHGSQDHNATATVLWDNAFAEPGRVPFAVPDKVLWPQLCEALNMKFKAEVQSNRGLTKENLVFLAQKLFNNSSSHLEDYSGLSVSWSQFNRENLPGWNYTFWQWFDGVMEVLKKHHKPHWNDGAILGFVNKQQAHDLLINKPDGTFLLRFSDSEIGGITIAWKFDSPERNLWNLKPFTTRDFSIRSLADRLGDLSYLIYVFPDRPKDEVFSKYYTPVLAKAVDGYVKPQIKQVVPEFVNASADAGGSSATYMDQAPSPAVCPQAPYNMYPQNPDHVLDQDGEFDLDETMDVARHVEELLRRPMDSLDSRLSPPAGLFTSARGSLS
The test can be described thus: Fluorescence polarization (FP) binding assay, STAT5A. Particulars: FP competition, 5 nM fluorescein-labeled tracer, 200 nM protein, PBS pH7.4. The method, then:
Evaluation of the activity of the inhibitors may be accomplished by fluorescence polarization (FP) experiments. A representative general protocol is the following:
Fluorescence polarization (FP) experiments are performed in black round-bottom plates using the CLARIOstar microplate reader. To each well, fluorescein-labeled tracer and STAT5 or STAT6 protein are added in assay buffer. […] The inhibition constants are determined as the concentration of the STAT5 or STAT6 at which 50% of the ligand is bound.
Fluorescence polarization (FP) experiments were performed in 96-well, black round-bottom plates (Microfluor 2, Fisher Scientific) using the CLARIOstar microplate reader (BMG Labtech). To each well, 5 nM of fluoresceinlabeled tracer and 200 nM of STAT5 and/or STAT6 protein were added to a final volume of 100 μl in the assay buffer (PBS pH7.4+0.01% BGG+0.01% Tween-20, 2 mM DTT). The plate was mixed on a shaker for 15 m and incubated at room temperature for 1 h to reach equilibrium. […] All experimental data were analyzed using Prism 8.0 software (GraphPad Software), and the inhibition constants were determined by nonlinear curve fitting as the concentration of the STAT5 and/or STAT6 at which 50% of the ligand is bound.
For orientation: Polarisation of emitted light reports the rotation of a fluorescent probe.

Another test concerns the target T2, STAT6 protein (Homo sapiens, UniProt P42226).
T2 sequence (P42226 1-847): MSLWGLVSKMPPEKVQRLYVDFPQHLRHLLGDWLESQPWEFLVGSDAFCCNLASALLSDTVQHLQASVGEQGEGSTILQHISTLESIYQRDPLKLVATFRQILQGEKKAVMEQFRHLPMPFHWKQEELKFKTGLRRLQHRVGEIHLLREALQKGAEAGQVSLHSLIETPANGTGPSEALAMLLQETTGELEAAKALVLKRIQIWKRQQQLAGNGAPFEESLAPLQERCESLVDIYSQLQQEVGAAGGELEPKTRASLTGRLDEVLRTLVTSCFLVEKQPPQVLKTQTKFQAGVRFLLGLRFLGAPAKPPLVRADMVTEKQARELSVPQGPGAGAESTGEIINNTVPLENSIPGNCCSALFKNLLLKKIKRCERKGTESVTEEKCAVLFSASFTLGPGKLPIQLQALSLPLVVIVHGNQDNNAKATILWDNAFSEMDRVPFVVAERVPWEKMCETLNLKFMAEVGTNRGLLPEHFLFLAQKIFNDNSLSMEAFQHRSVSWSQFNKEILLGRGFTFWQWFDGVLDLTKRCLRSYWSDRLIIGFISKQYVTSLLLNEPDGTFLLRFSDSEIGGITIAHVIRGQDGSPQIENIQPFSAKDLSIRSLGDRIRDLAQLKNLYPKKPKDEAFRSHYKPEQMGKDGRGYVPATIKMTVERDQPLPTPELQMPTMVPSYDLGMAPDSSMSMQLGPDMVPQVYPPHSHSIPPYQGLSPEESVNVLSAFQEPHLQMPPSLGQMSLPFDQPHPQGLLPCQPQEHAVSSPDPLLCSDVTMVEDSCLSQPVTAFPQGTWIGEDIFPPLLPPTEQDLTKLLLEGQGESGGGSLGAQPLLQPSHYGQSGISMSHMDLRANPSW
The test can be described thus: Fluorescence polarization (FP) binding assay, STAT6. Particulars: FP competition, 5 nM fluorescein-labeled tracer, 200 nM protein, PBS pH7.4; read-out: Binding STAT6. The procedure, abridged: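 5 nM fluorescein tracer + 200 nM STAT protein; PBS pH 7.4, 0.01% BGG, 0.01% Tween-20, 2 mM DTT; shake 15 min, 1 h RT equilibrium; FP read; nonlinear fit for inhibition constants.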

Some results are limits rather than exact numbers.

With `CC(C)(C)[C@H](NC(=O)/C=C/c1ccc(C(F)(F)P(=O)(O)O)cc1)C(=O)N1CCC[C@H]1C(=O)N(c1ccccc1)c1ccc(I)cc1` [Compound 1, (difluoro(4-((E)-3-(((S)-1-((S)-2-((4-iodophenyl)(phenyl)carbamoyl)pyrrolidin-1-yl)-3,3-dimethyl-1-oxobutan-2-yl)amino)-3-oxoprop-1-en-1-yl)phenyl)methyl)phosphonic acid], the Ki at STAT5A was above 10 µM; on STAT6 protein it was 0.1 to 1 µM.

As for `CC(C)(C)[C@H](NC(=O)c1cc2cc(C(F)(F)P(=O)(O)O)ccc2[nH]1)C(=O)N1CCC[C@H]1C(=O)N(c1ccccc1)c1ccc(I)cc1` [Compound 2, (difluoro(2-(((S)-1-((S)-2-((4-iodophenyl)(phenyl)carbamoyl)pyrrolidin-1-yl)-3,3-dimethyl-1-oxobutan-2-yl)carbamoyl)-1H-indol-5-yl)methyl)phosphonic acid], the figures for the Ki on STAT5A and on STAT6 protein were 1 to 10 µM and 0.1 to 1 µM, respectively. On to `CC(=O)N1CC[C@H]2CC[C@@H](C(=O)NC(c3ccccc3)c3ccccc3)N2C(=O)[C@@H](NC(=O)c2cc3cc(C(F)(F)P(=O)(O)O)ccc3[nH]2)C1` [Compound 3, ((2-(((5S,8S,10aR)-3-acetyl-8-(benzhydrylcarbamoyl)-6-oxodecahydropyrrolo[1,2-a][1,5]diazocin-5-yl)carbamoyl)-1H-indol-5-yl)difluoromethyl)phosphonic acid], for which the Ki was above 10 µM on STAT5A and 1 to 10 µM at STAT6 protein. Regarding `CC(=O)N1CC[C@H]2CC[C@@H](C(=O)NC(c3ccccc3)c3ccccc3)N2C(=O)[C@@H](NC(=O)/C=C/c2ccc(C(F)(F)P(=O)(O)O)cc2)C1` [Compound 5, ((4-((E)-3-(((5S,8S,10aR)-3-acetyl-8-(benzhydrylcarbamoyl)-6-oxodecahydropyrrolo[1,2-a][1,5]diazocin-5-yl)amino)-3-oxoprop-1-en-1-yl)phenyl)difluoromethyl)phosphonic acid], the Ki on STAT5A and at STAT6 protein was above 10 µM each time. Consider `CC(=O)N1CC[C@H]2CC[C@@H](C(=O)Nc3ccc(I)cc3)N2C(=O)[C@@H](NC(=O)/C=C/c2ccc(C(F)(F)P(=O)(O)O)cc2)C1` [Compound 6, ((4-((E)-3-(((5S,8S,10aR)-3-acetyl-8-((4-iodophenyl)carbamoyl)-6-oxodecahydropyrrolo[1,2-a][1,5]diazocin-5-yl)amino)-3-oxoprop-1-en-1-yl)phenyl)difluoromethyl)phosphonic acid], for which the Ki on STAT5A was above 10 µM; on STAT6 protein it was 1 to 10 µM. With `CC(=O)N1CC[C@H]2CC[C@@H](C(=O)N(C)C(c3ccccc3)c3ccccc3)N2C(=O)[C@@H](NC(=O)c2cc3cc(C(F)(F)P(=O)(O)O)ccc3[nH]2)C1` [Compound 7, ((2-(((5S,8S,10aR)-3-acetyl-8-(benzhydryl(methyl)carbamoyl)-6-oxodecahydropyrrolo[1,2-a][1,5]diazocin-5-yl)carbamoyl)-1H-indol-5-yl)difluoromethyl)phosphonic acid], the Ki was above 10 µM on STAT5A and 1 to 10 µM at STAT6 protein. For `NCCCC[C@H](NC(=O)/C=C/c1ccc(C(F)(F)P(=O)(O)O)cc1)C(=O)N1CCC[C@H]1C(=O)N1CCc2ccccc2C1` [Compound 8, ((4-((E)-3-(((S)-6-amino-1-oxo-1-((S)-2-(1,2,3,4-tetrahydroisoquinoline-2-carbonyl)pyrrolidin-1-yl)hexan-2-yl)amino)-3-oxoprop-1-en-1-yl)phenyl)difluoromethyl)phosphonic acid] the same measures were above 10 µM and above 10 µM. As to `CN(C)C(=O)CCN(C(=O)[C@@H]1CCCN1C(=O)[C@H](Cc1ccc2ccccc2c1)NC(=O)c1cc2cc(C(F)(F)P(=O)(O)O)ccc2s1)c1ccc(-c2nccs2)cc1` [Compound 329, ((2-(((S)-1-((S)-2-((3-(dimethylamino)-3-oxopropyl)(4-(thiazol-2-yl)phenyl)carbamoyl)pyrrolidin-1-yl)-3-(naphthalen-2-yl)-1-oxopropan-2-yl)carbamoyl)benzo[b]thiophen-5-yl)difluoromethyl)phosphonic acid], on STAT5A, the Ki fell in the range of 1 to 10 µM.
